Values after ≈ are worked out from the molar mass of the structure shown.

These results are taken from ChEMBL document CHEMBL1151485, “Glyco-S-nitrosothiols, a novel class of no donor compounds” (Bioorg Med Chem Lett, 1996).

A short description of data set [1]: Compound was evaluated for its stability in phosphate buffer in presence of EDTA at pH 7.4. The format is physicochemical. The note with it: phosphate buffer with EDTA.
Data set [2] in a line: Solubility of compound in 50 mM sodium phosphate buffer at room temperature. The data set is classed as physicochemical. The following applies: read-out: S.
Data set [3] is described as follows: Compound was evaluated for its stability in phosphate buffer in absence of EDTA at pH 7.4. The data set is classed as physicochemical. The note with it: phosphate buffer without EDTA.
Data set [4] is described as follows: Half-life in phosphate buffer at pH 7 and 37 degree C. The format is ADME.

As to `CC(=O)NC(C(=O)NC1OC(CO)C(O)C(O)C1O)C(C)(C)SN=O` (stereo not drawn), the half-life – broadly, the time needed for the level to fall by half in the phase considered – was 1710 min in data set [1] and 1810 min in data set [3]. Moreover, in data set [2], the solubility was above 1000 mg/mL.
On to `CC(=O)NC(C(=O)NC1C(O)OC(CO)C(O)C1O)C(C)(C)SN=O` (stereo not drawn), for which the half-life in data set [1] was 1650 min; in data set [3], 1640 min. Besides, the solubility in data set [2] is above 1000 mg/mL.
Take `CC(=O)N[C@@H](C(=O)O)C(C)(C)SN=O`: the half-life in data set [1] was 954 min; in data set [4] it was 300 min; in data set [3], 618 min. Also, the solubility in data set [2] was 2 mg/mL (≈ 9.08 mM).
As to `COC1OC(CNC(=O)C(NC(C)=O)C(C)(C)SN=O)C(O)C(O)C1O` (stereo not drawn), the figures for the half-life in data set [1] and in data set [3] were 1810 min and 1690 min, respectively. The solubility in data set [2] was above 1000 mg/mL.
